Results on twelve compounds are retold here after ChEMBL document CHEMBL5233210, “Pyrazolone structural motif in medicinal chemistry: Retrospect and prospect” (Eur J Med Chem, 2020).

pIC50, pKi: −log10 of the molar value.

The species named for data set [1] is Mus musculus. The data set is described as follows: Antihyperglycemic activity in mouse assessed as reduction in serum glucose ratio after 2 hrs. The data set is classed as functional. Also noted: scale not given: the % may be the effect or the level left.
In a further data set the target is Alpha-glucosidase (Saccharomyces cerevisiae S288c, UniProt P53341+P38158+P07265). The data set can be described thus: Inhibition of Saccharomyces cerevisiae alpha glucosidase. The data set is classed as protein assay.
The species named for data set [2] is Mus musculus. The data set is described as follows: Antihyperglycemic activity in mouse assessed as reduction in serum glucose ratio after 7 days. To be noted: time 7 day. The data set is classed as functional. Also noted: scale not given: the % may be the effect or the level left.
A short description of data set [3]: Inhibition of porcine alpha amylase. Set-up: species or system Sus scrofa.
For data set [4], the species on record is Mus musculus. The data set can be described thus: Anticonvulsant activity in mouse by MES test. The data set is classed as functional.
A further data set deals with PC-12. The data set can be described thus: Anti amyotrophic lateral sclerosis activity in rat PC-12 cells assessed as decrease in G93A SOD1 aggregate formation relative to control. The data set is classed as functional. Also noted: scale not given: the % may be the effect or the level left.
The next data set deals with Aspergillus niger. The data set can be described thus: Antifungal activity against Aspergillus niger assessed as diameter of inhibition zone at 100 ppm. As to conditions: read-out: DIZ. It is filed as functional.
The subject of data set [5] is Bacillus subtilis. The data set is described as follows: Antibacterial activity against Bacillus subtilis assessed as diameter of inhibition zone at 100 ppm. It is filed as functional. As to conditions: read-out: DIZ.
Data set [6] has as its system Escherichia coli. The data set can be described thus: Antibacterial activity against Escherichia coli assessed as diameter of inhibition zone at 100 ppm. It is filed as functional. As to conditions: read-out: DIZ.
Data set [7] concerns Pseudomonas aeruginosa. The data set can be described thus: Antibacterial activity against Pseudomonas aeruginosa assessed as diameter of inhibition zone at 100 ppm. To be noted: read-out: DIZ. The data set is classed as functional.
For data set [8], the system named is Escherichia coli. The data set is described as follows: Antibacterial activity against Escherichia coli. It is filed as functional.
For a further data set, the system named is Geotrichum candidum. The data set can be described thus: Antifungal activity against Geotrichum candidum. It is filed as functional.
The next data set has as its system Streptococcus pyogenes. The data set is described as follows: Antibacterial activity against Streptococcus pyogenes. The data set is classed as functional.
Data set [9] has as its system Bacillus subtilis. The data set can be described thus: Antibacterial activity against Bacillus subtilis. The data set is classed as functional.
Data set [10] relates to Pseudomonas aeruginosa. The data set is described as follows: Antibacterial activity against Pseudomonas aeruginosa. It is filed as functional.
Data set [11] deals with Glycogen synthase kinase-3 beta (Homo sapiens, UniProt P49841). The data set can be described thus: Inhibition of human GSK-3beta.
Data set [12] addresses T1, Prostaglandin G/H synthase 2 (Ovis aries, UniProt P79208).
T1 sequence (P79208 whole entry): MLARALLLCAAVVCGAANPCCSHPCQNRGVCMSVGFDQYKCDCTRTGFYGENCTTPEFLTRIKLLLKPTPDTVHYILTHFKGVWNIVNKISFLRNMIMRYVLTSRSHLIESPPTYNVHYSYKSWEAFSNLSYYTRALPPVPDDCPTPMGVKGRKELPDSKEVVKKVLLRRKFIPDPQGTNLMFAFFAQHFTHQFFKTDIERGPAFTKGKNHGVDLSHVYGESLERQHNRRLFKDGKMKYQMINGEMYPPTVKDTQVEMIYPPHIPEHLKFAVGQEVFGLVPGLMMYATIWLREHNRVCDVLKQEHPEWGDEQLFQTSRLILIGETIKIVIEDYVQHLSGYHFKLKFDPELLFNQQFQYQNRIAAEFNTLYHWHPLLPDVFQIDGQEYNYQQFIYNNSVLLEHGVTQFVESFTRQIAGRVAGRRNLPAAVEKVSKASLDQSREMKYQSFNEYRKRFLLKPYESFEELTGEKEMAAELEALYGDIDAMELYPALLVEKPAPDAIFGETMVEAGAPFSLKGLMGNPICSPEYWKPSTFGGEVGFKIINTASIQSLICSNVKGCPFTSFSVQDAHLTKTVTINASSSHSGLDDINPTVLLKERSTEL
The data set can be described thus: Inhibition of ovine COX-2.

For a further data set, the species on record is Ovis aries. The data set is described as follows: Selectivity index, ratio of IC50 for ovine COX-1 to IC50 for ovine COX-2.
Data set [13] concerns the target T2, Prostaglandin G/H synthase 1 (Ovis aries, UniProt P05979).
T2 sequence (P05979 whole entry): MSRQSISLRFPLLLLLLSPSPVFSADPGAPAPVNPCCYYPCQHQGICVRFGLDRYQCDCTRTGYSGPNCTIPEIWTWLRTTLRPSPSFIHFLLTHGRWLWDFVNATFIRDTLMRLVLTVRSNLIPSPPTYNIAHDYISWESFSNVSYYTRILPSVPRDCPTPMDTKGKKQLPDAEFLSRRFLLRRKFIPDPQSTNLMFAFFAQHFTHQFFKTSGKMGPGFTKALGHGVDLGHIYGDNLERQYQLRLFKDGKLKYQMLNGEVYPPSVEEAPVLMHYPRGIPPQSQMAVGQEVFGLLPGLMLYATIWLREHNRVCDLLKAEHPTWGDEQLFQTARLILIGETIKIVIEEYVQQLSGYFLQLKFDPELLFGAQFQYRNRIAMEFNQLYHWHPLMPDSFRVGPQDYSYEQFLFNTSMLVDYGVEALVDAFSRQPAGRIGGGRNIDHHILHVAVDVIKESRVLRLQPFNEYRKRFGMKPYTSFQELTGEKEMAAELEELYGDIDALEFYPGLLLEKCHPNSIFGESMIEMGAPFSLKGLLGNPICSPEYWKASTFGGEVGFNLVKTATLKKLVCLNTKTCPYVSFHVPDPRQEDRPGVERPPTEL
The data set can be described thus: Inhibition of ovine COX-1.

Data set [14] deals with Rattus norvegicus. The data set is described as follows: Antiinflammatory activity against rat assessed as inhibition of carrageenan-induced paw edema. The data set is classed as functional. (In general: Carrageenan injected into the paw causes an acute inflammation.)
Data set [15] relates to Rattus norvegicus. The data set can be described thus: Antiinflammatory activity against rat assessed as inhibition of carrageenan-induced paw edema relative to control. It is filed as functional. Also noted: concentration or dose not given beside the values.
In data set [16] the test system is Mus musculus. The data set can be described thus: Antihyperglycemic activity in db/db mouse assessed as decrease in blood glucose level at 2 mg/kg. It is filed as functional. Also noted: scale not given: the % may be the effect or the level left.
The subject of data set [17] is Mus musculus. The data set is described as follows: Antihyperglycemic activity in db/db mouse assessed as decrease in blood glucose level at 100 mg/kg. It is filed as functional. Also noted: scale not given: the % may be the effect or the level left.
In data set [18] the test system is Mus musculus. The data set can be described thus: Antihyperglycemic activity in db/db mouse assessed as decrease in blood glucose level at 20 mg/kg. The data set is classed as functional. Also noted: scale not given: the % may be the effect or the level left.
Data set [19] addresses Amine oxidase [flavin-containing] B (Rattus norvegicus, UniProt P19643). The data set is described as follows: Inhibition of rat brain synaptosome MAO-B. It is filed as subcellular.
The species entered for a further data set is Homo sapiens. The data set can be described thus: Selectivity index, ratio of Ki for human MAO-B to Ki for human MAO-A.
In data set [20] the target is Amine oxidase [flavin-containing] A (Rattus norvegicus, UniProt P21396). The data set can be described thus: Inhibition of rat brain synaptosome MAO-A. It is filed as subcellular.
The target in data set [21] is T3, Amine oxidase [flavin-containing] A (Homo sapiens, UniProt P21397).
T3 sequence (P21397 whole entry): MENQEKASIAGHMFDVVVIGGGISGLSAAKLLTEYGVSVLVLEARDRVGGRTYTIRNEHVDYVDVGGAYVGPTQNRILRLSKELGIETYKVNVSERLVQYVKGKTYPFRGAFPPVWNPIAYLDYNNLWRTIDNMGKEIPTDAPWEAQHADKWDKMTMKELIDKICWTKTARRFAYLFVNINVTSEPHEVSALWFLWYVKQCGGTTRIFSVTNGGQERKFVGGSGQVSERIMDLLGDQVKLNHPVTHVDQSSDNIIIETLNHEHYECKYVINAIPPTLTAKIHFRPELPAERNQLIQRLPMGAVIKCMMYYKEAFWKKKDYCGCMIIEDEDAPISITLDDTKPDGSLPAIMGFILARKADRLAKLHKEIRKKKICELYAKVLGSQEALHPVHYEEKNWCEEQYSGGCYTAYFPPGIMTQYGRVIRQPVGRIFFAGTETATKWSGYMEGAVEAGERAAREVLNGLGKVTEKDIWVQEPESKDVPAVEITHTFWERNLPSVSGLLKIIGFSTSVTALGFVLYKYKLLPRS
The data set can be described thus: Inhibition of human MAO-A.

For data set [22], the target named is T4, Amine oxidase [flavin-containing] B (Homo sapiens, UniProt P27338).
T4 sequence (P27338 whole entry): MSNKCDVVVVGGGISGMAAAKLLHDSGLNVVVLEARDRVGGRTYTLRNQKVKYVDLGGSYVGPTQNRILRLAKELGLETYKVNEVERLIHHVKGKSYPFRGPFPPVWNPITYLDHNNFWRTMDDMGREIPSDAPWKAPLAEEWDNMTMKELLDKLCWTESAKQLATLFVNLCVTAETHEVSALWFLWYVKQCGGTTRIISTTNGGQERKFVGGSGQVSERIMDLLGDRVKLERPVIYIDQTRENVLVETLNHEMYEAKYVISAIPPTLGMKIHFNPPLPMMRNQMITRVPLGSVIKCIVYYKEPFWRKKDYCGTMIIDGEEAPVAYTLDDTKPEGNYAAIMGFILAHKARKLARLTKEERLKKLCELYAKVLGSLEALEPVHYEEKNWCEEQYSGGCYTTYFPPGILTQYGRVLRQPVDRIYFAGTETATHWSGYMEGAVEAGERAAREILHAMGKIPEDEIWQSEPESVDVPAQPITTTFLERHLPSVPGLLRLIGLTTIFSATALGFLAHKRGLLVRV
The data set can be described thus: Inhibition of human MAO-B.

Data set [23] is described as follows: Selectivity index, ratio of CC50 african green monkey Vero cells to IC50 for Mycobacterium tuberculosis. The data set is classed as toxicity. To be noted: read-out: Ratio CC50/IC50.
Data set [24] concerns Mycobacterium tuberculosis. The data set can be described thus: Antibacterial activity against Mycobacterium tuberculosis. It is filed as functional, organism-based.
The species named for data set [25] is Rattus norvegicus. The data set is described as follows: Anticonvulsant activity in tryptamine seizure potentiated Wistar rat. It is filed as functional.

Amine oxidase [flavin-containing] B (Rattus norvegicus, UniProt P19643), sequence (P19643 whole entry): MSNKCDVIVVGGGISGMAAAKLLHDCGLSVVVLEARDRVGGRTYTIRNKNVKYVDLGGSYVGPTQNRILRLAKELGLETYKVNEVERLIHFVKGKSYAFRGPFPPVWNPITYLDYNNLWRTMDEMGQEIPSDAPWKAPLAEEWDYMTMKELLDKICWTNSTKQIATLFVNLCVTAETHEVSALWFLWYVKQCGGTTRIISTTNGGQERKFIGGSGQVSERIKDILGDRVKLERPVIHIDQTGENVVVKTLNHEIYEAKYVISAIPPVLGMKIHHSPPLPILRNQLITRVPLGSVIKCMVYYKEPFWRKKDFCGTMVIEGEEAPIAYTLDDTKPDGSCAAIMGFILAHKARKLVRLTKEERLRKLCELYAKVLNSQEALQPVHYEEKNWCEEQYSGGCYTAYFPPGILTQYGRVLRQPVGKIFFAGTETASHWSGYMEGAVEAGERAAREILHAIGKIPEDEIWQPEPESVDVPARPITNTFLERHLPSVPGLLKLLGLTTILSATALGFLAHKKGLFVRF
Glycogen synthase kinase-3 beta, sequence (P49841 whole entry): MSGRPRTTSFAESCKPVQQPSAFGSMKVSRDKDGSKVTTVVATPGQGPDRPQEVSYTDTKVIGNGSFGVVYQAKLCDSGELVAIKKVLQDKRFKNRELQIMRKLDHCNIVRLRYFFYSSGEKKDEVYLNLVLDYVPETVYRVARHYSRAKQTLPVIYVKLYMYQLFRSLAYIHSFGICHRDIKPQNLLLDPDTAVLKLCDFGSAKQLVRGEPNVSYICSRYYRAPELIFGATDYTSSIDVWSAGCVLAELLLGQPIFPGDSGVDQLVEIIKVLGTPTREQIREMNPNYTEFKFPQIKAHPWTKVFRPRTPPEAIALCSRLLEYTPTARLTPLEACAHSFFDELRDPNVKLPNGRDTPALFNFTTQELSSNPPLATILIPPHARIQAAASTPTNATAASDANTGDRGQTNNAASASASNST
Amine oxidase [flavin-containing] A (Rattus norvegicus, UniProt P21396), sequence (P21396 whole entry): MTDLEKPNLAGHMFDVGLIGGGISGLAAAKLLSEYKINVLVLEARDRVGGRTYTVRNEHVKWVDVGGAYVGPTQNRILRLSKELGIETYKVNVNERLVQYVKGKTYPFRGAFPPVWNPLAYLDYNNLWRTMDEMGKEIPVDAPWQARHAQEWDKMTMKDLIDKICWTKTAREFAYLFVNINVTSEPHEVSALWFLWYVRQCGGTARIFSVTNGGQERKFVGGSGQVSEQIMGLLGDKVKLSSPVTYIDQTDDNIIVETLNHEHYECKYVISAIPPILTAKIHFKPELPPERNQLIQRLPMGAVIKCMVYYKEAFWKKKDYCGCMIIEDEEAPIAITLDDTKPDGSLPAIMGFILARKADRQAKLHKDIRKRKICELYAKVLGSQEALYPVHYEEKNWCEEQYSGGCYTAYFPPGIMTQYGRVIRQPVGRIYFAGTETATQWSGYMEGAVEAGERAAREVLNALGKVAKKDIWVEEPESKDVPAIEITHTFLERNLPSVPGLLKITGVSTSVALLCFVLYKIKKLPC

By IC50 is commonly meant the concentration that inhibits the measured activity by half. For orientation: pIC50 means the negative decadic logarithm of the IC50, by convention in mol/L. As for `Cc1c(C(=O)CS(=O)(=O)c2ccccc2)c(=O)n(-c2ccccc2)n1C`, the Activity in the data set filed under Mus musculus [1] came out at 32.16%; in the data set listed under Mus musculus [2] it was 13.34%. Moreover, the IC50 against Alpha-glucosidase amounted to 63660 nM. In addition, the negative logarithm of the IC50 (pIC50) in data set [3] is 4.83.

Compound `CC1=NN(c2ccccc2)C(=O)/C1=C\c1cn(-c2ccccc2)nc1-c1ccc(Cl)c(Cl)c1` returned an Activity in the data set filed under Mus musculus [4] of 79.76%.

Turning to `C[C@@H]1C[C@H]2O[C@@H]2/C=C\C=C\C(=O)Cc2c(Cl)c(O)cc(O)c2C(=O)O1` [RADICICOL], in the data set on PC-12, the Activity is given as 80%.

As for `Nc1cc(=O)n(-c2ccc([N+](=O)[O-])cc2[N+](=O)[O-])[nH]1`, the zone of inhibition at 100 µg/mL in the data set on Aspergillus niger was determined as 15.2 mm; in the data set on Bacillus subtilis [5], 18.1 mm; in the data set with Escherichia coli [6] it was 15.3 mm; in the data set with Pseudomonas aeruginosa [7], 17.4 mm.

By MIC is commonly meant the least concentration at which growth counts as inhibited. For the compound `CC(=O)N1N=C(C)/C(=N/Nc2cc(Cl)cc(Cl)c2)C1=O`, the MIC in the data set on Escherichia coli [8] was more than 200 µg/mL; against Geotrichum candidum, more than 200 µg/mL; in the data set with Streptococcus pyogenes it was not above 12.5 µg/mL; against Bacillus subtilis [9], not above 12.5 µg/mL; in the data set with Pseudomonas aeruginosa [10] it was not above 12.5 µg/mL.

As for `Cn1cc(-c2[nH][nH]c(=O)c2-c2cn(C)c3ccccc23)c2ccccc21`, the pIC50 in data set [11] was 7.47.

Consider `NS(=O)(=O)c1ccc(N/N=C2/C=NN(c3ccccc3C(=O)O)C2=O)cc1`, for which the negative logarithm of the IC50 (pIC50) was 6.18 in data set [12] and 5.42 in [13]. Besides, in the data set listed under Ovis aries, the Ratio IC50 was determined as 5.69.

For the compound `NS(=O)(=O)c1ccc(N2N=C/C(=N/Nc3ccc(C(=O)O)cc3)C2=O)cc1`, the negative logarithm of the IC50 (pIC50) is 6.14 in [12] and 5.42 in data set [13]. Besides, in the data set filed under Ovis aries, the Ratio IC50 is 5.29. Moreover, the ED50 in the data set on Rattus norvegicus [14] was found to be 44 µmol/kg. For the same compound, in the data set with Rattus norvegicus [15], the Activity came to 72.72%.

As for `CSc1ccc(Cc2c(C(F)(F)F)n[nH]c2O)cc1`, the Activity with Mus musculus [16] is given as 30%; in the data set on Mus musculus [17], 68%; in the data set on Mus musculus [18], 57%.

In general, pKi refers to −log10 of the Ki, conventionally taken in molar units. Regarding `Cc1c(C(=O)CC(C#N)C#N)c(=O)n(-c2ccccc2)n1C`, the pIC50 in data set [19] is 6.88; in data set [20], 5.63. Moreover, the Ratio Ki in the data set filed under Homo sapiens turned out to be 8670. Also, the values for the pKi in data set [21] and in [22] were 10.85 and 6.92, respectively.

On to `O=C1CC(NC(=O)CN2CCNCC2)=NN1`, for which the selectivity ratio in data set [23] amounted to 631. Also, in data set [24], the pIC50 was more than 6.36.

Take `C#CCN(C)[C@H](C)Cc1ccccc1` [SELEGILINE]: in the data set filed under Rattus norvegicus [25], the ED50 is 300 nM.
